Tests used:
Cytochrome P450 2C19 = Cytochrome P450 2C19 (Homo sapiens, UniProt P33261); conditions: bti-tn-5b1-4; also: in other assays of this panel Not Active means under 50% inhibition at 10 µM
Histamine H2 receptor = Histamine H2 receptor (Homo sapiens, UniProt P25021); assay type: cell membranes, CHO-K1, Membrane; conditions: cho-k1; also: in other assays of this panel Not Active means under 50% inhibition at 10 µM
Cannabinoid receptor 1 = Cannabinoid receptor 1 (Homo sapiens, UniProt P21554); assay type: cell membranes, Chem-1, Membrane; conditions: chem-1; also: in other assays of this panel Not Active means under 50% inhibition at 10 µM
Chain of Cannabinoid receptor 1 (P21554 whole entry): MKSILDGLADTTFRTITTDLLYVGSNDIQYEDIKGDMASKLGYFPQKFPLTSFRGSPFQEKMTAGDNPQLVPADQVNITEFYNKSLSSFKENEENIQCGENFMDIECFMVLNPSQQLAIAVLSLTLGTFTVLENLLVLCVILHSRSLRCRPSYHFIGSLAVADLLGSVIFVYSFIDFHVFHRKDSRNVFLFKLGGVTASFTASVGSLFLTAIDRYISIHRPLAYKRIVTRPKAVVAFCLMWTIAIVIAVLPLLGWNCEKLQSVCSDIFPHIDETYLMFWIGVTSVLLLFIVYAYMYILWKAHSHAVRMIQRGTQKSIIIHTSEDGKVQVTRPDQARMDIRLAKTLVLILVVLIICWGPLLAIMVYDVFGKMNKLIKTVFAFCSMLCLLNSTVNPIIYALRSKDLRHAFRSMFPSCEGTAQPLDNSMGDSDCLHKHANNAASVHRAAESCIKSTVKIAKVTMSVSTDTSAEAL

Adenosine receptor A3 = molecular target: T1, Adenosine receptor A3 (Homo sapiens, UniProt P0DMS8); assay type: cell membranes, CHO-K1, Membrane;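 also: radioligand binding assay with AB-MECA serving as the labeled ligand; in other assays of this panel Not Active means under 50% inhibition at 10 µM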
T1 sequence (P0DMS8 whole entry): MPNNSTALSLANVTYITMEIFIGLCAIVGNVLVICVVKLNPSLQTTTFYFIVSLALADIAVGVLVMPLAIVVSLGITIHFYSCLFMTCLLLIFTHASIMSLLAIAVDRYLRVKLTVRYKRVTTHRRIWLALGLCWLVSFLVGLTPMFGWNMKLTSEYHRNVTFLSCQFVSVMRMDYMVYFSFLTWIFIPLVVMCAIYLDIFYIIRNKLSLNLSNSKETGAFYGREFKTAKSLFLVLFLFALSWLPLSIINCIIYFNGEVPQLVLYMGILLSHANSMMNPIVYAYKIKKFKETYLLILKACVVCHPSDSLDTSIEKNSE

D(3) dopamine receptor = D(3) dopamine receptor (Homo sapiens, UniProt P35462); assay: DRUGMATRIX: Dopamine D3 radioligand binding (ligand: [3H] Spiperone); assay type: cell membranes, CHO, Membrane
Chain of D(3) dopamine receptor (P35462 whole entry): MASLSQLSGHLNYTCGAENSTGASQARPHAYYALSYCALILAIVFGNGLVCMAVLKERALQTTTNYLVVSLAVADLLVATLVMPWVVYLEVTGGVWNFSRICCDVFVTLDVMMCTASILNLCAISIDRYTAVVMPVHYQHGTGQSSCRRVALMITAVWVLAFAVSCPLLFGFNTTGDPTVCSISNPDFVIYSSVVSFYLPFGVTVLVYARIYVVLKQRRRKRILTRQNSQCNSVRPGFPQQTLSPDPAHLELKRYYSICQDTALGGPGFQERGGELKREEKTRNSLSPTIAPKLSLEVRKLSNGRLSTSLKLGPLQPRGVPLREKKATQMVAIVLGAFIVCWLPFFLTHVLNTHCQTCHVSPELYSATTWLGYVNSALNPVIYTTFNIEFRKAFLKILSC

[1] = molecular target: Mitogen-activated protein kinase 1 (Homo sapiens, UniProt P28482); assay: DRUGMATRIX: Protein Serine/Threonine Kinase, ERK2 enzyme inhibition (substrate: Myelin Basic Protein); set-up: species or system Escherichia coli; conditions: Not Active = under 50% inhibition at 10 µM
Chain of Mitogen-activated protein kinase 1 (P28482 whole entry): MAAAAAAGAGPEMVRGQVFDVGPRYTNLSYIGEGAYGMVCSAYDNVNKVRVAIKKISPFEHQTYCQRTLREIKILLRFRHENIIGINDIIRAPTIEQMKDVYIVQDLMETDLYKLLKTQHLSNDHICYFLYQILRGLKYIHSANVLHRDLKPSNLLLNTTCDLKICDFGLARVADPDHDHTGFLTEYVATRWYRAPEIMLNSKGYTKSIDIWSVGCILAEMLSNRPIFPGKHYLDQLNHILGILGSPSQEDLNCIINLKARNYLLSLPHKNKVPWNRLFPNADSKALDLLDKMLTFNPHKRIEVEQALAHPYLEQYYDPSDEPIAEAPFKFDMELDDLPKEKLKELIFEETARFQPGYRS

[2] = DRUGMATRIX: beta-Lactamase enzyme inhibition (substrate: Nitrocefin); set-up: species or system Bacillus cereus; conditions: Not Active = under 50% inhibition at 10 µM

Chain of Histamine H2 receptor (P25021 whole entry): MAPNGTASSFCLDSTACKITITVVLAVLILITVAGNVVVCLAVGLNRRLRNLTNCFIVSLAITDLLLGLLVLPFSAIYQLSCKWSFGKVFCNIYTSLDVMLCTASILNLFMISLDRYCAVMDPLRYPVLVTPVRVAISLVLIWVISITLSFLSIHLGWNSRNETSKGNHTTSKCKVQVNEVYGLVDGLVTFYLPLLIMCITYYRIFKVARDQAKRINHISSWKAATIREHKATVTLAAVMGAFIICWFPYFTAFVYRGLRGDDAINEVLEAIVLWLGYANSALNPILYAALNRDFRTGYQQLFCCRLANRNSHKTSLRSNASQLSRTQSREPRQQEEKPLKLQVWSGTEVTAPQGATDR
Chain of Cytochrome P450 2C19 (P33261 whole entry): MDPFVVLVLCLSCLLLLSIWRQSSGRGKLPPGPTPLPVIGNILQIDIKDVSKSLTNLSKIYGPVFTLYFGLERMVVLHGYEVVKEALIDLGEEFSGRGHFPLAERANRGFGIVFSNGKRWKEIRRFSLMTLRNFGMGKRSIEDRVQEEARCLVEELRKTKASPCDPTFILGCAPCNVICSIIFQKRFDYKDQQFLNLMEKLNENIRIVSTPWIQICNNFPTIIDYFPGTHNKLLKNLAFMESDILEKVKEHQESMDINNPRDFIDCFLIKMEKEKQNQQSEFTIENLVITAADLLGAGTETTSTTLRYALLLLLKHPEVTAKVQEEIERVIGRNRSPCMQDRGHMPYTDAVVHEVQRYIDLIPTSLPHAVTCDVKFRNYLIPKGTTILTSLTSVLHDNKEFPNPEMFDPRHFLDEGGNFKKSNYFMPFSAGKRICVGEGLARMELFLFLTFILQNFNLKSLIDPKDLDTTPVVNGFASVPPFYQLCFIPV

| Compound | IC50 (Cytochrome P450 2C19) | Ki (Cytochrome P450 2C19) | IC50 (Histamine H2 receptor) | IC50 (Cannabinoid receptor 1) | IC50 (Adenosine receptor A3; cho-k1) | IC50 (D(3) dopamine receptor; cho) | IC50 [1] | IC50 [2] | Ki [2] | Ki (Histamine H2 receptor) | Ki (Cannabinoid receptor 1) | Ki (Adenosine receptor A3; cho-k1) | Ki (D(3) dopamine receptor; cho) | Ki [1] | IC50 (Adenosine receptor A3; read-out: IC50) [µM] | Ki (Adenosine receptor A3; read-out: Ki) [µM] | IC50 (D(3) dopamine receptor; read-out: IC50) [nM] | Ki (D(3) dopamine receptor; read-out: Ki) [nM] |
| --- | --- | --- | --- | --- | --- | --- | --- | --- | --- | --- | --- | --- | --- | --- | --- | --- | --- | --- |
| CC(O)(P(=O)(O)O)P(=O)(O)O [ETIDRONIC ACID] | Not Active | Not Active | Not Active | Not Active | Not Active | Not Active | Not Active | Not Active | Not Active | – | – | – | – | – | – | – | – | – |
| CCOC(=O)c1ncn2c1CN(C)C(=O)c1cc(F)ccc1-2 [FLUMAZENIL] | Not Active | Not Active | Not Active | Not Active | Not Active | Not Active | Not Active | Not Active | Not Active | – | – | – | – | – | – | – | – | – |
| COBALTOUS CHLORIDE | Not Active | Not Active | Not Active | Not Active | Not Active | Not Active | Not Active | Not Active | Not Active | Not Active | Not Active | Not Active | Not Active | Not Active | – | – | – | – |
| CC(=O)Oc1ccccc1C(=O)O [ASPIRIN] | Not Active | Not Active | Not Active | Not Active | Not Active | Not Active | Not Active | Not Active | Not Active | – | – | – | – | – | – | – | – | – |
| Cc1c(O)cccc1C(=O)N[C@@H](CSc1ccccc1)[C@H](O)CN1C[C@H]2CCCC[C@H]2C[C@H]1C(=O)NC(C)(C)C | Not Active | Not Active | Not Active | Not Active | – | Not Active | Not Active | Not Active | Not Active | – | – | – | – | – | 14.8 | 8.36 | – | – |
| Cc1cccc(C)c1NC(=O)C1CCCCN1C (stereo not drawn) [MEPIVACAINE] | Not Active | Not Active | Not Active | Not Active | Not Active | Not Active | Not Active | Not Active | Not Active | – | – | – | – | – | – | – | – | – |
| O=c1[nH]c(=O)n([C@H]2C[C@H](O)[C@@H](CO)O2)cc1F [FLOXURIDINE] | Not Active | Not Active | Not Active | Not Active | Not Active | Not Active | Not Active | Not Active | Not Active | – | – | – | – | – | – | – | – | – |
| O=C(O)CC(O)(CC(=O)O)C(=O)O [CITRIC ACID] | Not Active | Not Active | Not Active | Not Active | Not Active | Not Active | Not Active | Not Active | Not Active | – | – | – | – | – | – | – | – | – |
| Cc1cc(O)cc(C)c1Cl [CHLOROXYLENOL] | Not Active | Not Active | Not Active | Not Active | Not Active | Not Active | Not Active | Not Active | Not Active | – | – | – | – | – | – | – | – | – |
| O=C(O)CCCc1cccs1 | Not Active | Not Active | Not Active | Not Active | Not Active | Not Active | Not Active | Not Active | Not Active | – | – | – | – | – | – | – | – | – |
| CCCNC(=O)NS(=O)(=O)c1ccc(Cl)cc1 [CHLORPROPAMIDE] | Not Active | Not Active | Not Active | Not Active | Not Active | Not Active | Not Active | Not Active | Not Active | – | – | – | – | – | – | – | – | – |
| CC(=O)OC[C@H]1O[C@@H](n2ncc(=O)[nH]c2=O)[C@H](OC(C)=O)[C@@H]1OC(C)=O [AZARIBINE] | Not Active | Not Active | Not Active | Not Active | Not Active | Not Active | Not Active | Not Active | Not Active | – | – | – | – | – | – | – | – | – |
| NCCCNCCSP(=O)(O)O [AMIFOSTINE] | Not Active | Not Active | Not Active | Not Active | Not Active | – | Not Active | Not Active | Not Active | – | – | – | – | – | – | – | 1930 | 655 |
| CC(C)(C)NCC(O)COc1cccc2c1CC(O)C(O)C2 (stereo not drawn) [NADOLOL] | Not Active | Not Active | Not Active | Not Active | Not Active | Not Active | Not Active | Not Active | Not Active | – | – | – | – | – | – | – | – | – |
